Test results reported in publication PMC3025922 (BMC Biology, 2010).
“And” between values parts separate entries of the source, which are not always exact repeats. Equal values may be shown once. Read-outs that look alike come from different tables or passages of the source.

What was measured:
[1] = tested on: IMR90 cells; experiment: Cell cycle analysis by flow cytometry, IMR90; assay type: cell-based, human
Procedure: (§1) Cells were exposed to SMIPs (40 μM) for 24 h and 48 h. Cells were trypsinized, washed with PBS and suspended in 600 μL PBS. Cells were fixed by adding 1.4 mL cold absolute ethanol and kept at -20°C for at least 12 h. After washing once with PBS, the cells were resuspended in 250 μL PBS containing 2.5 μg RNAse A and incubated for 45 min at room temperature. Staining was done by adding 40 μg/mL of propidium iodine followed by incubation for 15 min at room temperature. DNA-bound fluorescence was read at 564 to 606 nm using FACSort and FACSCanto flow cytometers (BD Biosciences) at the Flow Cytometry Facility of the Sanford-Burnham Medical Research Institute. Distribution of cells in the different cell cycle phase was determined with ModFit LT 3.2.1 or FlowJo 8.6 software. Aggregates were excluded from the analysis manually using pulse shape or identified by automated modelling in ModFit LT.

[2] = tested on: p21 protein levels in PC3 cells; experiment: Immunoblot quantification of p21, PC3; assay type: cell-based, human
Procedure: (§2) Total cell lysate from cells treated with vehicle (DMSO) or compounds were obtained by incubating cells in lysis buffer (25 mM Tris-HCl pH 7.4, 150 mM NaCl, 0.5% Triton X-100, protease inhibitors) for 15 min at 4°C. The supernatant was collected by centrifugation and the amount of protein was determined with a Bio-Rad protein assay (Bio-Rad) using BSA as standard. Equal amounts of protein were subjected to SDS-PAGE (4%-20% gels, Invitrogen) and transferred to PVDF membranes. The membranes were blocked with TBST (50 mM Tris-HCl pH 7.5, 150 mM NaCl, 0.05% Tween-20) containing 5% non-fat dry milk or bovine serum albumin (BSA) for 1 h at room temperature, followed by incubation in primary antibodies 4°C overnight. Membranes were washed and incubated with secondary antibodies conjugated to HRP (Jackson ImmunoResearch Laboratories) for 1 h at room temperature. Signals were visualized using the ECL Western Blotting Substrate (Pierce Biotechnology, IL, USA) according to the manufacturer's instructions. Membranes were stripped using Restore™ Western Blot Stripping Buffer (Pierce Biotechnology). Films were scanned and quantification of the bands was performed using Image J software http://rsbweb.nih.gov/ij/.

[3] = tested on: LNCaP-S14 cells; experiment: MTT cytotoxicity assay, LNCaP-S14; details: Homo sapiens, 72 h, read-out: IC50 (MTT cytotoxicity)
[4] = tested on: p21 protein levels in HeLa cells; experiment: Immunoblot quantification of p21, HeLa; assay type: cell-based, human
Procedure: as §2

[5] = tested on: p27 protein levels in HeLa cells; experiment: Immunoblot quantification of p27, HeLa; assay type: cell-based, human
Procedure: as §2

[6] = tested on: p27 protein levels in PC3 cells; experiment: Immunoblot quantification of p27, PC3; assay type: cell-based, human
Procedure: as §2

[7] = tested on: p27 protein levels in DU145 cells; experiment: Immunoblot quantification of p27, DU145; assay type: cell-based, human
Procedure: as §2

[8] = tested on: p21 protein levels in LNCaP cells; experiment: Immunoblot quantification of p21, LNCaP; assay type: cell-based, human
Procedure: as §2

[9] = tested on: p21 protein levels in DU145 cells; experiment: Immunoblot quantification of p21, DU145; assay type: cell-based, human
Procedure: as §2

[10] = tested on: LNCaP cells; experiment: Cell cycle analysis by flow cytometry, LNCaP; assay type: cell-based, human
Procedure: as §1

[11] = tested on: p21 protein levels in LNCaP-S14 cells; experiment: Immunoblot quantification of p21, LNCaP-S14; assay type: cell-based, human
Procedure: as §2

[12] = tested on: p21 protein levels in IMR90 cells; experiment: Immunoblot quantification of p21, IMR90; assay type: cell-based, human
Procedure: as §2

[13] = tested on: p27 stability in LNCaP-S14 cells; experiment: Protein half-life by cycloheximide chase; assay type: cell-based, human; details: LNCaP-S14, 40 μM SMIPs 18 h, then cycloheximide 100 μg/mL; DMSO ~ 1.29 h
Procedure: LNCaP-S14 cells were treated with SMIPs (40 μM) for 18 h followed by the addition of 100 μg/mL cycloheximide (CHX). Cell extracts were obtained as described above at different times after CHX addition. Protein lysate was subjected to SDS-PAGE and immunoblotting for p27, p21 and SKP2. Tubulin was used as loading control. Protein half-lives were calculated using a web based calculator http://www.1728.com/halflife.htm.

[14] = tested on: PC3 cells; experiment: MTT cytotoxicity assay, PC3; details: Homo sapiens, read-out: IC50 (MTT cytotoxicity)
[15] = tested on: p27 protein levels in IMR90 cells; experiment: Immunoblot quantification of p27, IMR90; assay type: cell-based, human
Procedure: as §2

[16] = tested on: LNCaP-S14 cells; experiment: Cell Death Detection ELISA (cytoplasmic histone-associated DNA fragments); assay type: cell-based, human
Procedure: Apoptosis was measured using the Cell Death Detection ELISA (Roche, Basel, Switzerland) following the manufacturer's instructions. Briefly, LNCaP-S14 cells (0.1 × 10^6) were seeded in 12-well plates and treated with SMIPs (40 μM) for 24 h. Cells were collected in medium, spun at 1000 rpm, and resuspended in 1 mL PBS at the specified time points (day 1 to day 3). The cell suspension was divided into two parts. The first half was used for determination of cytoplasmic histone-associated DNA fragments (ELISA), the second for protein determination to normalize the ELISA data to the amount of input protein.

[17] = tested on: LNCaP-WT cells; experiment: MTT cytotoxicity assay, LNCaP-WT; details: Homo sapiens, read-out: IC50 (MTT cytotoxicity)
[18] = tested on: DU145 cells; experiment: MTT cytotoxicity assay, DU145; details: Homo sapiens, read-out: IC50 (MTT cytotoxicity)
[19] = tested on: p27 protein levels in LNCaP-S14 cells; experiment: Immunoblot quantification of p27, LNCaP-S14; assay type: cell-based, human
Procedure: as §2

[20] = MTT cytotoxicity assay, IMR90; assay type: cell-based; details: human, IMR90 normal fibroblasts
[21] = tested on: LNCaP-S14 cells; experiment: Cell cycle analysis by flow cytometry, LNCaP-S14; assay type: cell-based, human
Procedure: as §1

[22] = tested on: PC3 cells; experiment: Cell cycle analysis by flow cytometry, PC3; assay type: cell-based, human
Procedure: as §1

Q: Which “Cell cycle distribution G1” value [1] does the source give for `CC(C)(C)c1cc2cc(NC(=O)c3cccs3)ccc2[nH]1` [SMIP001] here?
A: Its value is 68.4 and 77.0.

Q: What about the “Cell cycle distribution G2” value [1] of the same compound?
A: Its value is 15.3 and 14.1.

Q: What about the “Cell cycle distribution S” value [1] of the same compound?
A: The value was 16.2 and 8.9.

Q: What about the “p21 protein level (immunoblot, DMSO = 1.0)” value (from here on “p21 protein level”) [2] of the same compound?
A: The value was 1.1 ± 0.5.

Q: And the IC50 [3]?
A: Its IC50 is 4.63 µM.

Q: And the “p21 protein level” value [4]?
A: Its value is 1.1 ± 0.2.

Q: What about the “p27 protein level (immunoblot, DMSO = 1.0)” value (from here on “p27 protein level”) [5] of the same compound?
A: The value was 1.1 ± 0.1.

Q: What about the “p27 protein level” value [6] of the same compound?
A: The value was 1.3 ± 0.6.

Q: What about the “p27 protein level” value [7] of the same compound?
A: The value was 1.1 ± 0.2.

Q: What about the “p21 protein level” value [8] of the same compound?
A: Its value is 1.7 ± 0.6.

Q: And the “p21 protein level” value [9]?
A: The value was 1.1 ± 0.3.

Q: What about the “Cell cycle distribution G1” value [10] of the same compound?
A: The value was 84.5 and 83.6.

Q: And the “Cell cycle distribution G2” value [10]?
A: The value was 7.6 and 6.6.

Q: And the “Cell cycle distribution S” value [10]?
A: The value was 6.6 and 8.5.

Q: And the “p21 protein level” value [11]?
A: The value was 2.0 ± 0.6.

Q: What about the “p21 protein level” value [12] of the same compound?
A: The value was 1.1 ± 0.0.

Q: What about the p27 half-life [13] of the same compound?
A: Its p27 half-life is “No effect”.

Q: And the IC50 ([14]; PC-3, 72 h)?
A: Its IC50 is about 80 µM.

Q: And the IC50 ([14]; PC-3, 96 h)?
A: Its IC50 is 80 µM.

Q: What about the “p27 protein level” value [15] of the same compound?
A: Its value is 1.0 ± 0.0.

Q: And the “increase in the amount of mono and oligonucleosomes” value [16]?
A: The value was “three- to fivefold”.

Q: What about the IC50 ([17]; 72 h) of the same compound?
A: The IC50 was 47.1 µM.

Q: And the IC50 ([17]; 96 h)?
A: The IC50 was 32.7 µM.

Q: And the IC50 ([18]; DU-145, 72 h)?
A: Its IC50 is about 40 µM.

Q: And the IC50 ([18]; DU-145, 96 h)?
A: The IC50 was 32.5 µM.

Q: And the “p27 protein level” value [19]?
A: The value was 1.9 ± 0.5.

Q: And the IC50 at 72 h ([20]; IMR90, 0.01 - 40 μM)?
A: Its IC50 at 72 h is over 20 µM.

Q: What about the IC50 at 72 h ([20]; IMR90, 0.01 - 80 μM) of the same compound?
A: Its IC50 at 72 h is 40 to 80 µM.

Q: And the IC50 at 96 h ([20]; IMR90, 0.01 - 80 μM, 96 h)?
A: The IC50 at 96 h was 40 to 80 µM.

Q: And the “Cell cycle distribution G1” value [21]?
A: The value was 84.8 and 86.8.

Q: And the “Cell cycle distribution G2” value [21]?
A: Its value is 6.3 and 3.5.

Q: What about the “Cell cycle distribution S” value [21] of the same compound?
A: Its value is 7.2 and 6.9.

Q: And the “Cell cycle distribution G1” value [22]?
A: Its value is 48.6 and 57.5.

Q: And the “Cell cycle distribution G2” value [22]?
A: The value was 29.7 and 27.8.

Q: What about the “Cell cycle distribution S” value [22] of the same compound?
A: Its value is 20.4 and 13.6.
